Molecular target: T1, HIF-PH2 (Homo sapiens, UniProt Q9GZT9)
T1 construct: made in house; host or cells: insect Hi5 cells
Assay: HIF-PH assay (14CO2 capture, peptide-dependent turnover)
Assay type: biochemical
Details: compound concentration 22.22 μM
From the text: Ketoglutaric acid α-[1-^14C]-sodium salt, alpha-ketoglutaric acid sodium salt, and HPLC purified peptide may be obtained from commercial sources, e.g., Perkin-Elmer (Wellesley Mass.), Sigma-Aldrich, and SynPep Corp. (Dublin Calif.), respectively. Peptides for use in the assay may be fragments of HIFα as described above or as disclosed in International Publication WO 2005/118836, incorporated by reference herein. For example, a HIF peptide for use in the HIF-PH assay is [methoxycoumarin]-DLDLEALAPYIPADDDFQL-amide. HIF-PH, e.g., HIF-PH2 (EGLN1), can be expressed in, e.g., insect Hi5 cells, and partially purified, e.g., through a SP ion exchange chromatography column. Enzyme activity is determined by capturing ^14CO2 using an assay described by Kivirikko and Myllyla (1982, Methods Enzymol. 82:245-304). Assay reactions contain 50 mM HEPES (pH 7.4), 100 μM α-ketoglutaric acid sodium salt, 0.30 μCi/mL ketoglutaric acid α-[1-^14C]-sodium salt, 40 μM FeSO4, 1 mM ascorbate, 1541.8 units/mL Catalase, with or without 50 μM peptide substrate and various concentrations of compound of the invention. Reactions are initiated by addition of HIF-PH enzyme.
The peptide-dependent percent turnover is calculated by subtracting percent turnover in the absence of peptide from percent turnover in the presence of substrate peptide. Percent inhibition and IC50 are calculated using peptide-dependent percent turnover at given inhibitor concentrations. Calculation of IC50 values for each inhibitor is conducted using GraFit software (Erithacus Software Ltd., Surrey UK).
Representative compounds of the invention were analyzed using the HIF-PH assay described above. Table I below presents enzyme inhibition data for exemplary compounds against HIF-PH2, a representative HIF prolyl hydroxylase enzyme. By inhibiting HIF prolyl hydroxylase enzymes, compounds of the invention stabilize HIFα, which then combines with HIFβ to form an active transcription factor that increases expression of various genes involved in numerous beneficial cellular processes.

T1 sequence (Q9GZT9 whole entry, species assumed): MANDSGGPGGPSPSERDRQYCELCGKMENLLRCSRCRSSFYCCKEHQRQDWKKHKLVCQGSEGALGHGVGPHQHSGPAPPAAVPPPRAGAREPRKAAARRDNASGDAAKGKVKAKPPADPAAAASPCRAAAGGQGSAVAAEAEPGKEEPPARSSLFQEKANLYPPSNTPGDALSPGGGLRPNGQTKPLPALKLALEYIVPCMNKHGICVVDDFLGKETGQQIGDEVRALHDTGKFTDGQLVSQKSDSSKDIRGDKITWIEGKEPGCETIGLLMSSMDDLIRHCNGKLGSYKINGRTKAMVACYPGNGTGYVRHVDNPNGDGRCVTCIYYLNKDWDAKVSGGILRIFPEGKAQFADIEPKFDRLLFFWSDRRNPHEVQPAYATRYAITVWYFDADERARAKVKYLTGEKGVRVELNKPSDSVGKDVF

Row | Structure (SMILES) | inhibition at 22.22 µM
1 | N#Cc1nc(C(=O)NCC(=O)O)c(O)c2c(-c3ccc(F)cc3)nsc12 [Example 8, {[7-Cyano-3-(4-fluoro-phenyl)-4-hydroxy-isothiazolo[5,4-c]pyridine-5-carbonyl]-amino}-acetic acid] | 98.3%
2 | N#Cc1ccc(-c2nc(C(=O)NCC(=O)O)c(O)c3c(-c4ccc(F)cc4)nsc23)cc1 [Example 11, {[7-(4-Cyano-phenyl)-3-(4-fluoro-phenyl)-4-hydroxy-isothiazolo[5,4-c]pyridine-5-carbonyl]-amino}-acetic acid] | 91.5%
3 | O=C(O)CNC(=O)c1nc(Cc2ccccc2)c2snc(-c3ccc(Cl)cc3)c2c1O [Example 22, {[7-Benzyl-3-(4-chloro-phenyl)-4-hydroxy-isothiazolo[5,4-c]pyridine-5-carbonyl]-amino}-acetic acid] | 97%
4 | O=C(O)CNC(=O)c1nc(-c2cn(Cc3ccccc3)nn2)c2snc(-c3ccc(Cl)cc3)c2c1O [Example 23, {[7-(1-Benzyl-1H-[1,2,3]triazol-4-yl)-3-(4-chloro-phenyl)-4-hydroxy-isothiazolo[5,4-c]pyridine-5-carbonyl]-amino}-acetic acid] | 100%
5 | O=C(O)CNC(=O)c1nc(-c2cccc3ccccc23)c2snc(-c3ccc(Cl)cc3)c2c1O [Example 24, {[3-(4-Chloro-phenyl)-4-hydroxy-7-naphthalen-1-yl-isothiazolo[5,4-c]pyridine-5-carbonyl]-amino}-acetic acid] | 96%
6 | Cc1nsc2c(O)c(C(=O)NCC(=O)O)nc(-c3ccccc3)c12 [Example 31, [(7-Hydroxy-3-methyl-4-phenyl-isothiazolo[4,5-c]pyridine-6-carbonyl)-amino]-acetic acid] | 98%

Same assay, conditions: compound concentration 200 μM

Row | Structure (SMILES) | inhibition at 200 µM
7 | O=C(O)CNC(=O)c1nc(-c2ccc(F)cc2)c2snc(-c3ccccc3)c2c1O [Example 1, {[7-(4-Fluoro-phenyl)-4-hydroxy-3-phenyl-isothiazolo[5,4-c]pyridine-5-carbonyl]-amino}-acetic acid] | 98%
8 | COc1ccc(-c2nc(C(=O)NCC(=O)O)c(O)c3c(-c4ccccc4)nsc23)cc1 [Example 2, {[4-Hydroxy-7-(4-methoxy-phenyl)-3-phenyl-isothiazolo[5,4-c]pyridine-5-carbonyl]-amino}-acetic acid] | 97.9%
9 | O=C(O)CNC(=O)c1nc(-c2cccnc2)c2snc(-c3ccccc3)c2c1O [Example 3, [(4-Hydroxy-3-phenyl-7-pyridin-3-yl-isothiazolo[5,4-c]pyridine-5-carbonyl)-amino]-acetic acid] | 100%
10 | O=C(O)CNC(=O)c1nc(-c2ccccn2)c2snc(-c3ccccc3)c2c1O [Example 4, [(4-Hydroxy-3-phenyl-7-pyridin-2-yl-isothiazolo[5,4-c]pyridine-5-carbonyl)-amino]-acetic acid] | 99.1%
11 | O=C(O)CNC(=O)c1nc(-c2ccncc2)c2snc(-c3ccccc3)c2c1O [Example 5, [(4-Hydroxy-3-phenyl-7-pyridin-4-yl-isothiazolo[5,4-c]pyridine-5-carbonyl)-amino]-acetic acid] | 97.1%
12 | C#Cc1nc(C(=O)NCC(=O)O)c(O)c2c(-c3ccc(F)cc3)nsc12 [Example 6, {[7-Ethynyl-3-(4-fluoro-phenyl)-4-hydroxy-isothiazolo[5,4-c]pyridine-5-carbonyl]-amino}-acetic acid] | 98.3%
13 | O=C(O)CNC(=O)c1nc(Br)c2snc(-c3ccc(F)cc3)c2c1O [Example 7, {[7-Bromo-3-(4-fluoro-phenyl)-4-hydroxy-isothiazolo[5,4-c]pyridine-5-carbonyl]-amino}-acetic acid] | 100%
14 | Cc1nc(C(=O)NCC(=O)O)c(O)c2c(-c3ccc(F)cc3)nsc12 [Example 9, {[3-(4-Fluoro-phenyl)-4-hydroxy-7-methyl-isothiazolo[5,4-c]pyridine-5-carbonyl]-amino}-acetic acid] | 97.4%
15 | O=C(O)CNC(=O)c1nc(-c2ccccc2)c2snc(-c3ccc(F)cc3)c2c1O [Example 10, {[3-(4-Fluoro-phenyl)-4-hydroxy-7-phenyl-isothiazolo[5,4-c]pyridine-5-carbonyl]-amino}-acetic acid] | 98.2%
16 | O=C(O)CNC(=O)c1ncc2snc(-c3ccc(F)cc3)c2c1O [Example 12, {[3-(4-Fluoro-phenyl)-4-hydroxy-isothiazolo[5,4-c]pyridine-5-carbonyl]-amino}-acetic acid] | 98.9%
17 | COc1ccc(-c2nc(C(=O)NCC(=O)O)c(O)c3c(-c4ccc(Cl)cc4)nsc23)cc1 [Example 13, {[3-(4-Chloro-phenyl)-4-hydroxy-7-(4-methoxy-phenyl)-isothiazolo[5,4-c]pyridine-5-carbonyl]-amino}-acetic acid] | 94.5%
18 | C#Cc1nc(C(=O)NCC(=O)O)c(O)c2c(-c3ccc(Cl)cc3)nsc12 [Example 14, {[3-(4-Chloro-phenyl)-7-ethynyl-4-hydroxy-isothiazolo[5,4-c]pyridine-5-carbonyl]-amino}-acetic acid] | 100%
19 | Cc1nc(C(=O)NCC(=O)O)c(O)c2c(-c3ccc(Cl)cc3)nsc12 [Example 15, {[3-(4-Chloro-phenyl)-4-hydroxy-7-methyl-isothiazolo[5,4-c]pyridine-5-carbonyl]-amino}-acetic acid] | 99.5%
20 | O=C(O)CNC(=O)c1ncc2snc(-c3ccc(Cl)cc3)c2c1O [Example 16, {[3-(4-Chloro-phenyl)-4-hydroxy-isothiazolo[5,4-c]pyridine-5-carbonyl]-amino}-acetic acid] | 99.9%
21 | O=C(O)CNC(=O)c1nc(-c2ccccc2)c2snc(-c3ccc(Cl)cc3)c2c1O [Example 17, {[3-(4-Chloro-phenyl)-4-hydroxy-7-phenyl-isothiazolo[5,4-c]pyridine-5-carbonyl]-amino}-acetic acid] | 98.7%
22 | C[C@@H](NC(=O)c1ncc2snc(-c3ccc(Cl)cc3)c2c1O)C(=O)O [Example 18, (R)-2-{[3-(4-Chloro-phenyl)-4-hydroxy-isothiazolo[5,4-c]pyridine-5-carbonyl]-amino}-propionic acid] | 54%
23 | C[C@H](NC(=O)c1ncc2snc(-c3ccc(Cl)cc3)c2c1O)C(=O)O [Example 19, (S)-2-{[3-(4-Chloro-phenyl)-4-hydroxy-isothiazolo[5,4-c]pyridine-5-carbonyl]-amino}-propionic acid] | 100%
24 | COc1cccc(-c2nc(C(=O)NCC(=O)O)c(O)c3c(-c4ccc(Cl)cc4)nsc23)c1 [Example 20, {[3-(4-Chloro-phenyl)-4-hydroxy-7-(3-methoxy-phenyl)-isothiazolo[5,4-c]pyridine-5-carbonyl]-amino}-acetic acid] | 88.9%
25 | COc1ccc(-c2nc(C(=O)NCC(=O)O)c(O)c3c(-c4ccc(Cl)cc4)nsc23)cn1 [Example 21, {[3-(4-Chloro-phenyl)-4-hydroxy-7-(6-methoxy-pyridin-3-yl)-isothiazolo[5,4-c]pyridine-5-carbonyl]-amino}-acetic acid] | 77%
26 | CC(=O)c1nc(C(=O)NCC(=O)O)c(O)c2c(-c3ccc(Cl)cc3)nsc12 [Example 25, {[7-Acetyl-3-(4-chloro-phenyl)-4-hydroxy-isothiazolo[5,4-c]pyridine-5-carbonyl]-amino}-acetic acid] | 100%
27 | O=C(O)CNC(=O)c1nc(C(F)(F)F)c2snc(-c3ccc(Cl)cc3)c2c1O [Example 26, {[3-(4-Chloro-phenyl)-4-hydroxy-7-trifluoromethyl-isothiazolo[5,4-c]pyridine-5-carbonyl]-amino}-acetic acid] | 100%
28 | O=C(O)CNC(=O)c1nc(Br)c2c(-c3ccccc3)nsc2c1O [Example 27, [(4-Bromo-7-hydroxy-3-phenyl-isothiazolo[4,5-c]pyridine-6-carbonyl)-amino]-acetic acid] | 98%
29 | Cc1nc(C(=O)NCC(=O)O)c(O)c2c(C)nsc12 [Example 28, [(4-Hydroxy-3,7-dimethyl-isothiazolo[5,4-c]pyridine-5-carbonyl)-amino]-acetic acid] | 100%
30 | Cc1nsc2c(O)c(C(=O)NCC(=O)O)nc(C)c12 [Example 29, [(7-Hydroxy-3,4-dimethyl-isothiazolo[4,5-c]pyridine-6-carbonyl)-amino]-acetic acid] | 100%
31 | Cc1nsc2c(-c3ccccc3)nc(C(=O)NCC(=O)O)c(O)c12 [Example 30, [(4-Hydroxy-3-methyl-7-phenyl-isothiazolo[5,4-c]pyridine-5-carbonyl)-amino]-acetic acid] | 100%
32 | Cc1nsc2c(O)c(C(=O)NCC(=O)O)ncc12 [Example 32, [(7-Hydroxy-3-methyl-isothiazolo[4,5-c]pyridine-6-carbonyl)-amino]-acetic acid] | 100%

Source: US9387200B2, “Isothiazole-pyridine derivatives as modulators of HIF (hypoxia inducible factor) activity” (FibroGen, Inc., priority 2008, dated 2016)
